Assay results from US20260070902A1, “SULFONYL DERIVATIVES AS CCR6 INHIBITORS” (Hoffmann-La Roche Inc., priority 2022, published 2026).

Columns and labels:
human CCR6 = biological target: T1, human CCR6 (Homo sapiens, UniProt P51684); test: Human CCR6-CRE reporter assay; assay type: cell-based; set-up: The second construct contained the open reading frame of human CCR6 in the pUNO1 backbone; host or cells: 293FT cells; conditions: relative -Log IC50; 293FT cells transfected with human CCR6 and CRE-luciferase reporter; 6 μM Forskolin, 6 nM CCL20; 5 h
T1 sequence (P51684 1-374): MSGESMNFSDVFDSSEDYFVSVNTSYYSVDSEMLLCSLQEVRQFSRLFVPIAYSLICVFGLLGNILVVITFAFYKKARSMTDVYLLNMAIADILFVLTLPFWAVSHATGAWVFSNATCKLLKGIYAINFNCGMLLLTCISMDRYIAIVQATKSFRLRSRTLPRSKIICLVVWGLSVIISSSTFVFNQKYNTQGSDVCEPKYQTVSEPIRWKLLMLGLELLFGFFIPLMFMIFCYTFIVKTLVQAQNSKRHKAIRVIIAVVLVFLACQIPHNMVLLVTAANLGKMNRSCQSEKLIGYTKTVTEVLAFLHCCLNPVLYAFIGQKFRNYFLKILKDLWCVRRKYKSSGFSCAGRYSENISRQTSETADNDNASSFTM
Method in brief: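 293FT cells transiently co-transfected with human CCR6 and a CRE-luc2P reporter, used 48 h later. Compounds incubated with cells in medium containing 6 μM Forskolin and 6 nM CCL20 (assay-medium levels), 0.1% DMSO final, 5 h at 37° C; luminescence read, relative −Log IC50 from four-parameter fit.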

Human CD4+ T cells = test: CD4+ T cells chemotaxis assay towards CCL20; assay type: cell-based; conditions: Homo sapiens, CD4+ T cell, 3 h, relative -Log IC50, human CD4+ T cells stimulated with anti-CD3 and anti-CD28, migration towards 150 ng/ml CCL20
From the text: CD4+ T Cells Chemotaxis Assay Towards CCL20
Human CD4+ T cells were isolated from buffy coats of healthy donors using a CD4+ T Cell Isolation Kit (Miltenyi Biotec130-096-533). Isolated T cells were stimulated overnight with anti-CD3 and anti-CD28 antibodies (Biolegend 300314/302934) in growth medium (RPMI1640, 10% heat-inactivated FBS, 1× pen/strep (Gibco 15140)). For the chemotaxis assay, Corning Transwell plates were used with a pore size of 5 m (Corning 3388). T cells were counted and diluted to 6*10^6 cells/ml in chemotaxis medium (RPMI1640, 1% BSA, pen/strep). Compounds were four-fold serially diluted in DMSO. Further dilutions were made in chemotaxis medium. Cells were incubated with test compounds for 30 min at 37° C. prior to initiation of the assay (3*10^6 cells/ml). Final DMSO concentration in the assay was 0.2%. Wells of the Transwell plates were filled with 200 μl chemotaxis medium containing 150 ng/ml CCL20 (R&D systems 360-MP). 50 μl of the cell/compound suspension was added to the inserts of the Transwell plates (150,000 cells/insert). The Transwell plates were placed in an incubator at 37° C., 5% CO2 for 3 h. After 3 h, the number of migrated cells was quantified using CellTiter Glo (Promega). Percentage inhibition values were calculated based on the low and high signal obtained with 0.2% DMSO in chemotaxis medium without and with CCL20, respectively. The relative −Log IC50 was determined with GraphPad Prism 9 using a four-parameter dose-response model.

| SMILES | IC50 (human CCR6) | IC50 (Human CD4+ T cells) |
| --- | --- | --- |
| N#Cc1cnc2ccc(-c3ccc(S(=O)(=O)N4CCC(Nc5ccc(S(F)(F)(F)(F)F)cc5)CC4)cc3)cn12 [Example 25, 6-{4-[(4-{[4-(pentafluoro-λ^6-sulfanyl)phenyl]Amino}piperidin-1-yl)sulfonyl]phenyl}imidazo[1,2-a]pyridine-3-carbonitrile] | 39.8 nM | 5.01 nM |
| O=c1[nH]nc2ccc(-c3ccc(S(=O)(=O)N4CCC(Nc5ccc(S(F)(F)(F)(F)F)cc5)CC4)cc3)cn12 [Example 32, 6-{4-[(4-{[4-(pentafluoro-λ^6-sulfanyl)phenyl]Amino}piperidin-1-yl)sulfonyl]phenyl}-2H,3H-[1,2,4]triazolo[4,3-a]pyridin-3-one] | 100 nM | 3.98 nM |
| N#Cc1n[nH]c2ccc(-c3ccc(S(=O)(=O)[C@H]4CC[C@H](Nc5ccc(S(F)(F)(F)(F)F)cc5)CC4)cc3)cc12 [Example 38, 5-(4-{[trans-4-{[4-(pentafluoro-λ^6-sulfanyl)phenyl]Amino}cyclohexyl]sulfonyl}phenyl)-1H-indazole-3-carbonitrile] | 39.8 nM | 0.631 nM |
| Cc1nc2ccc(-c3ccc(S(=O)(=O)[C@H]4CC[C@H](Nc5ccc(S(F)(F)(F)(F)F)cc5)CC4)cc3)cn2n1 [Example 40, 4-(pentafluoro-λ^6-sulfanyl)-N-[trans-4-(4-{2-methyl-[1,2,4]triazolo[1,5-a]pyridin-6-yl}benzenesulfonyl)cyclohexyl]aniline] | 100 nM | 10 nM |
| O=S(=O)(c1ccc(-c2ccc(O)nc2)cc1)[C@H]1CC[C@H](Nc2ccc(S(F)(F)(F)(F)F)cc2)CC1 [Example 56, 5-(4-{[trans-4-{[4-(pentafluoro-λ^6-sulfanyl)phenyl]Amino}cyclohexyl]sulfonyl}phenyl)pyridin-2-ol] | 63.1 nM | 15.8 nM |
| N#Cc1cnc2ccc(-c3ccc(S(=O)(=O)N4CCC(Nc5cccc(S(F)(F)(F)(F)F)c5)CC4)cc3)cn12 [Example 81, 6-{4-[(4-{[3-(pentafluoro-λ^6-sulfanyl)phenyl]Amino}piperidin-1-yl)sulfonyl]phenyl}imidazo[1,2-a]pyridine-3-carbonitrile] | 126 nM | 158 nM |
| N=S(=O)(c1ccc(-c2ccnc(C(N)=O)c2)cc1)[C@H]1CC[C@H](Nc2ccc(S(F)(F)(F)(F)F)cc2)CC1 (stereo partly drawn) [Example 91, 4-(4-{[trans-4-{[4-(pentafluoro-λ^6-sulfanyl)phenyl]Amino}cyclohexyl]sulfonimidoyl}phenyl)pyridine-2-carboxamide] | 126 nM | 31.6 nM |
| O=C1NC2(CCN(c3ccc(S(=O)(=O)N4CCC(Nc5ccc(S(F)(F)(F)(F)F)cc5)CC4)cc3)CC2)CO1 [Example 135, 8-{4-[(4-{[4-(pentafluoro-λ^6-sulfanyl)phenyl]amino}piperidin-1-yl)sulfonyl]phenyl}-3-oxa-1,8-diazaspiro[4.5]decan-2-one] | 126 nM | 25.1 nM |
| O=S(=O)(c1ccc(N2CCC3(CC2)COC3)cc1)N1CCC(Nc2ccc(S(F)(F)(F)(F)F)cc2)CC1 [Example 136, 1-(4-{2-oxa-7-azaspiro[3.5]nonan-7-yl}benzenesulfonyl)-N-[4-(pentafluoro-λ^6-sulfanyl)phenyl]piperidin-4-amine] | 126 nM | 200 nM |
| CC(C)c1nnc2cnc(-c3ccc(S(=O)(=O)N4CCC(Nc5ccc(S(F)(F)(F)(F)F)cc5)CC4)cc3)cn12 [Example 140, N-[4-(pentafluoro-λ^6-sulfanyl)phenyl]-1-{4-[3-(propan-2-yl)-[1,2,4]triazolo[4,3-a]pyrazin-6-yl]benzenesulfonyl}piperidin-4-amine] | 63.1 nM | 2.51 nM |
| NC(=O)c1cc(-c2ccc(S(=O)(=O)[C@H]3CC[C@H](Nc4ccc(S(F)(F)(F)(F)F)cc4)CC3)cc2)cs1 [Example 148, 4-(4-{[trans-4-{[4-(pentafluoro-λ^6-sulfanyl)phenyl]amino}cyclohexyl]sulfonyl}phenyl)thiophene-2-carboxamide] | 50.1 nM | 5.01 nM |
| Cc1n[nH]c2ncc(-c3ccc(S(=O)(=O)[C@H]4CC[C@H](Nc5ccc(S(F)(F)(F)(F)F)cc5)CC4)cc3)cc12 [Example 150, 4-(pentafluoro-λ^6-sulfanyl)-N-[trans-4-(4-{3-methyl-1H-pyrazolo[3,4-b]pyridin-5-yl}benzenesulfonyl)cyclohexyl]aniline] | 63.1 nM | 1 nM |

The remaining compounds from weak to strong by IC50 (human CCR6), led by results:

| IC50 (human CCR6) | IC50 (Human CD4+ T cells) | SMILES |
| --- | --- | --- |
| 501 nM | 126 nM | O=S(=O)(c1ccc(-c2ccc3nccn3c2)nc1)N1CCC(Nc2ccc(S(F)(F)(F)(F)F)cc2)CC1 [Example 77, 1-[(6-{imidazo[1,2-a]pyridin-6-yl}pyridin-3-yl)sulfonyl]-N-[4-(pentafluoro-λ^6-sulfanyl)phenyl]piperidin-4-amine] |
| 200 nM | 316 nM | O=S(=O)(c1ccc(-c2ccc3nccn3c2)cc1)N1CCC(Nc2cccc(S(F)(F)(F)(F)F)c2)CC1 [Example 82, 1-(4-{imidazo[1,2-a]pyridin-6-yl}benzenesulfonyl)-N-[3-(pentafluoro-λ^6-sulfanyl)phenyl]piperidin-4-amine] |
| 200 nM | 126 nM | N=S(=O)(c1ccc(-c2ccnc(C(N)=O)c2)cc1)N1CCC(Nc2ccc(S(F)(F)(F)(F)F)cc2)CC1 (stereo not shown) [Example 125, 4-{4-[(4-{[4-(pentafluoro-λ^6-sulfanyl)phenyl]Amino}piperidin-1-yl)sulfonimidoyl]phenyl}pyridine-2-carboxamide] |
| 200 nM | 126 nM | O=S(=O)(c1ccc(N2CC3CCC(C2)O3)cc1)N1CCC(Nc2ccc(S(F)(F)(F)(F)F)cc2)CC1 [Example 137, 1-(4-{8-oxa-3-azabicyclo[3.2.1]octan-3-yl}benzenesulfonyl)-N-[4-(pentafluoro-λ^6-sulfanyl)phenyl]piperidin-4-amine] |
| 158 nM | 10 nM | O=C1NCCC12CCN(c1ccc(S(=O)(=O)N3CCC(Nc4ccc(S(F)(F)(F)(F)F)cc4)CC3)cc1)CC2 [Example 134, 8-{4-[(4-{[4-(pentafluoro-λ^6-sulfanyl)phenyl]amino}piperidin-1-yl)sulfonyl]phenyl}-2,8-diazaspiro[4.5]decan-1-one] |
| 79.4 nM | 20 nM | COC1CC2(CCN(c3ccc(S(=O)(=O)N4CCC(Nc5ccc(S(F)(F)(F)(F)F)cc5)CC4)cc3)CC2)C1 [Example 132, 1-(4-{2-methoxy-7-azaspiro[3.5]nonan-7-yl}benzenesulfonyl)-N-[4-(pentafluoro-λ^6-sulfanyl)phenyl]piperidin-4-amine] |
| 63.1 nM | 6.31 nM | O=S(=O)(c1ccc(-c2cc(C(F)(F)F)c3nccn3c2)cc1)[C@H]1CC[C@H](Nc2ccc(S(F)(F)(F)(F)F)cc2)CC1 [Example 151, 4-(pentafluoro-λ^6-sulfanyl)-N-[trans-4-{4-[8-(trifluoromethyl)imidazo[1,2-a]pyridin-6-yl]benzenesulfonyl}cyclohexyl]aniline] |
| 39.8 nM | 3.98 nM | O=C1NC(=O)C2(CCN(c3ccc(S(=O)(=O)N4CCC(Nc5ccc(S(F)(F)(F)(F)F)cc5)CC4)cc3)CC2)N1 [Example 133, 8-{4-[(4-{[4-(pentafluoro-λ^6-sulfanyl)phenyl]amino}piperidin-1-yl)sulfonyl]phenyl}-1,3,8-triazaspiro[4.5]decane-2,4-dione] |
